Laboratory results from the NIST ThermoML archive (doi:10.1021/acs.jced.6b00455).

Experiment: mn = molality of the nth substance listed, in mol/kg
Details: 101 kPa, Liquid, Alternating current cell with electrodes

C[N+](C)(C)CCO.O=C([O-])C(F)(F)C(F)(F)C(F)(F)C(F)(F)C(F)(F)C(F)(F)F [(2-hydroxyethyl)trimethylammonium perfluoroheptanoate] + O
Details | electrical conductivity [S/m]
293.15 K, m1 = 0.000135 | 0.0009
293.15 K, m1 = 0.000317 | 0.002
293.15 K, m1 = 0.000535 | 0.0035
293.15 K, m1 = 0.000719 | 0.0047
293.15 K, m1 = 0.000905 | 0.0059
293.15 K, m1 = 0.001097 | 0.0071
293.15 K, m1 = 0.001295 | 0.0083
293.15 K, m1 = 0.001556 | 0.01
293.15 K, m1 = 0.001738 | 0.0112
293.15 K, m1 = 0.001921 | 0.0124
293.15 K, m1 = 0.002361 | 0.0151
293.15 K, m1 = 0.002553 | 0.0164
293.15 K, m1 = 0.002745 | 0.0179
293.15 K, m1 = 0.002967 | 0.0189
293.15 K, m1 = 0.003167 | 0.0201
293.15 K, m1 = 0.003365 | 0.021
293.15 K, m1 = 0.003617 | 0.0224
293.15 K, m1 = 0.003811 | 0.0234
293.15 K, m1 = 0.003989 | 0.0244
293.15 K, m1 = 0.004235 | 0.0259
293.15 K, m1 = 0.004463 | 0.0271
293.15 K, m1 = 0.004647 | 0.0283
293.15 K, m1 = 0.005243 | 0.0318
293.15 K, m1 = 0.00563 | 0.0339
293.15 K, m1 = 0.006196 | 0.037
293.15 K, m1 = 0.006659 | 0.0405
293.15 K, m1 = 0.006813 | 0.0416
293.15 K, m1 = 0.007215 | 0.0437
293.15 K, m1 = 0.007673 | 0.0468
293.15 K, m1 = 0.007989 | 0.0489
298.15 K, m1 = 0.000182 | 0.0012
298.15 K, m1 = 0.000351 | 0.0023
298.15 K, m1 = 0.000524 | 0.0036
298.15 K, m1 = 0.000696 | 0.0048
298.15 K, m1 = 0.000849 | 0.0059
298.15 K, m1 = 0.001022 | 0.0071
298.15 K, m1 = 0.001139 | 0.0079
298.15 K, m1 = 0.001334 | 0.0092
298.15 K, m1 = 0.001552 | 0.0107
298.15 K, m1 = 0.001763 | 0.0123
298.15 K, m1 = 0.001988 | 0.014
298.15 K, m1 = 0.002225 | 0.0158
298.15 K, m1 = 0.002433 | 0.0172
298.15 K, m1 = 0.002631 | 0.0186
298.15 K, m1 = 0.00283 | 0.0198
298.15 K, m1 = 0.003092 | 0.0212
298.15 K, m1 = 0.003297 | 0.0222
298.15 K, m1 = 0.003578 | 0.0237
298.15 K, m1 = 0.003893 | 0.0254
298.15 K, m1 = 0.004239 | 0.0271
298.15 K, m1 = 0.004535 | 0.0288
298.15 K, m1 = 0.004786 | 0.0303
298.15 K, m1 = 0.00505 | 0.0318
298.15 K, m1 = 0.005319 | 0.0333
298.15 K, m1 = 0.005529 | 0.0345
298.15 K, m1 = 0.005823 | 0.0361
303.15 K, m1 = 0.000162 | 0.0014
303.15 K, m1 = 0.000327 | 0.0027
303.15 K, m1 = 0.000396 | 0.0031
303.15 K, m1 = 0.000558 | 0.0045
303.15 K, m1 = 0.000597 | 0.0046
303.15 K, m1 = 0.000902 | 0.0068
303.15 K, m1 = 0.001056 | 0.0084
303.15 K, m1 = 0.001145 | 0.0088
303.15 K, m1 = 0.001333 | 0.0102
303.15 K, m1 = 0.001525 | 0.0116
303.15 K, m1 = 0.001575 | 0.0126
303.15 K, m1 = 0.001779 | 0.0138
303.15 K, m1 = 0.001975 | 0.0164
303.15 K, m1 = 0.00219 | 0.0173
303.15 K, m1 = 0.002392 | 0.0187
303.15 K, m1 = 0.002573 | 0.0201
303.15 K, m1 = 0.002757 | 0.0218
303.15 K, m1 = 0.003 | 0.0233
303.15 K, m1 = 0.003295 | 0.0254
303.15 K, m1 = 0.003479 | 0.0262
303.15 K, m1 = 0.003569 | 0.0269
303.15 K, m1 = 0.00377 | 0.0282
303.15 K, m1 = 0.00395 | 0.0297
303.15 K, m1 = 0.004136 | 0.0313
303.15 K, m1 = 0.004356 | 0.033
303.15 K, m1 = 0.00458 | 0.0343
303.15 K, m1 = 0.004761 | 0.0357
303.15 K, m1 = 0.005083 | 0.0368
308.15 K, m1 = 0.000308 | 0.0028
308.15 K, m1 = 0.001088 | 0.0096
308.15 K, m1 = 0.001458 | 0.0131
308.15 K, m1 = 0.001696 | 0.0151
308.15 K, m1 = 0.001932 | 0.0174
308.15 K, m1 = 0.002314 | 0.0204
308.15 K, m1 = 0.002768 | 0.0243
308.15 K, m1 = 0.002948 | 0.0255
308.15 K, m1 = 0.003212 | 0.0279
308.15 K, m1 = 0.003414 | 0.0297
308.15 K, m1 = 0.003749 | 0.0324
308.15 K, m1 = 0.004024 | 0.0348
308.15 K, m1 = 0.004369 | 0.037
308.15 K, m1 = 0.004622 | 0.0392
308.15 K, m1 = 0.004874 | 0.0413
308.15 K, m1 = 0.00517 | 0.0438
308.15 K, m1 = 0.005462 | 0.0462
313.15 K, m1 = 0.000152 | 0.0016
313.15 K, m1 = 0.000311 | 0.0032
313.15 K, m1 = 0.000509 | 0.005
313.15 K, m1 = 0.000756 | 0.0072
313.15 K, m1 = 0.000952 | 0.0094
313.15 K, m1 = 0.001127 | 0.0112
313.15 K, m1 = 0.001383 | 0.0138
313.15 K, m1 = 0.001573 | 0.0155
313.15 K, m1 = 0.001796 | 0.0179
313.15 K, m1 = 0.001971 | 0.0201
313.15 K, m1 = 0.002233 | 0.0227
313.15 K, m1 = 0.002359 | 0.0239
313.15 K, m1 = 0.002573 | 0.0262
313.15 K, m1 = 0.002937 | 0.0297
313.15 K, m1 = 0.003135 | 0.0321
313.15 K, m1 = 0.003363 | 0.0336
313.15 K, m1 = 0.003618 | 0.0359
313.15 K, m1 = 0.003798 | 0.0379
313.15 K, m1 = 0.003983 | 0.0396
313.15 K, m1 = 0.004151 | 0.0413
313.15 K, m1 = 0.004487 | 0.0444
313.15 K, m1 = 0.004771 | 0.0466
313.15 K, m1 = 0.00507 | 0.0489
313.15 K, m1 = 0.005297 | 0.0508
313.15 K, m1 = 0.005682 | 0.0543
